Experimental data taken from patent publication US7998979B2, “Antibacterial quinoline derivatives” (Janssen Pharmaceutical N.V., priority 2006, dated 2011).
Converted amounts (≈) assume the structure as drawn.

Assays:
[1] = test system: Streptococcus pneumoniae (ATCC6305); assay: IC90 determination, microtitre plate assay, SPN 6305; assay type: cell-based; conditions: 90% inhibitory concentration for bacterial growth, 37° C.; for IC90: Streptococcus pneumoniae, ATCC6305, 24 h, read-out: IC90 (μg/ml) SPN 6305; for IC90 (μg/ml) SPN 6305: 24 hours
Method: (§1) D.3. In-Vitro Method for Testing Compounds for Anti-Bacterial Activity Against Various Non-Mycobacterial Strains
(§2) Preparation of Bacterial Suspensions for Susceptibility Testing:
(§3) The bacteria used in this study were grown overnight in flasks containing 100 ml Mueller-Hinton Broth (Becton Dickinson—cat. no. 275730) in sterile de-ionized water, with shaking, at 37° C. Stocks (0.5 ml/tube) were stored at −70° C. until use. Bacteria titrations were performed in microtiter plates to detect the TCID50, in which the TCID50 represents the dilution that gives rise to bacterial growth in 50% of inoculated cultures.
(§4) In general, an inoculum level of approximately 100 TCID50 was used for susceptibility testing.
(§5) Anti Bacterial Susceptibility Testing: IC90 Determination
(§6) Flat-bottom, sterile 96-well plastic microtiter plates were filled with 180 μl of sterile deionized water, supplemented with 0.25% BSA. Subsequently, stock solutions (7.8×final test concentration) of compounds were added in 45 μl volumes in column 2 Serial five-fold dilutions (45 μl in 180 μl) were made directly in the microtiter plates from column 2 to reach column 11. Untreated control samples with (column 1) and without (column 12) inoculum were included in each microtiter plate. Depending on the bacteria type, approximately 10 to 60 CFU per well of bacteria inoculum (100 TCID50), in a volume of 100 μl in 2.8×Mueller-Hinton broth medium, was added to the rows A to H, except column 12. The same volume of broth medium without inoculum was added to column 12 in row A to H. The cultures were incubated at 37° C. for 24 hours under a normal atmosphere (incubator with open air valve and continuous ventilation). At the end of incubation, one day after inoculation, the bacterial growth was quantitated fluorometrically. Therefore resazurin (0.6 mg/ml) was added in a volume of 20 μl to all wells 3 hours after inoculation, and the plates were re-incubated overnight. A change in colour from blue to pink indicated the growth of bacteria. The fluorescence was read in a computer-controlled fluorometer (Cytofluor Biosearch) at an excitation wavelength of 530 nm and an emission wavelength of 590 nm. The % growth inhibition achieved by the compounds was calculated according to standard methods.

[2] = test system: Staphylococcus aureus (ATCC29213); assay: IC90 determination, microtitre plate assay, STA 29213; assay type: cell-based; conditions: 90% inhibitory concentration for bacterial growth, 37° C.; for IC90 (μg/ml) STA B29213: 24 hours; for IC90: Staphylococcus aureus, ATCC29213, 24 h, read-out: IC90 (μg/ml) STA B29213
Method: as §1, §2, §3, §4, §5, §6

M. Smegmatis (ATCC607) = assay: In-vitro anti-bacterial activity against strain M. Smegmatis ATCC607; assay type: cell-based; conditions: 90% inhibitory concentration for bacterial growth, 37° C.; for IC90 (μg/ml) MSM 607: 48 hours; for IC90: Mycolicibacterium smegmatis, ATCC607, 48 h, read-out: IC90 (μg/ml) MSM 607
Method: D.2. In-Vitro Method for Testing Compounds for Anti-Bacterial Activity Against Strain M. Smegmatis ATCC607
Flat-bottom, sterile 96-well plastic microtiter plates were filled with 180 μl of sterile deionized water, supplemented with 0.25% BSA. Subsequently, stock solutions (7.8×final test concentration) of compounds were added in 45 μl volumes to a series of duplicate wells in column 2 so as to allow evaluation of their effects on bacterial growth. Serial five-fold dilutions (45 μl in 180 μl) were made directly in the microtiter plates from column 2 to 11 using a customised robot system (Zymark Corp., Hopkinton, Mass.). Pipette tips were changed after every 3 dilutions to minimize pipetting errors with high hydrophobic compounds. Untreated control samples with (column 1) and without (column 12) inoculum were included in each microtiter plate. Approximately 250 CFU per well of bacteria inoculum, in a volume of 100 μl in 2.8×Mueller-Hinton broth medium, was added to the rows A to H, except column 12. The same volume of broth medium without inoculum was added to column 12 in row A to H. The cultures were incubated at 37° C. for 48 hours in a humidified 5% CO2 atmosphere (incubator with open air valve and continuous ventilation). At the end of incubation, two days after inoculation, the bacterial growth was quantitated fluorometrically. Therefore Alamar Blue (10×) was added to all wells in a volume of 20 μl and plates were incubated for another 2 hours at […]
The fluorescence was read in a computer-controlled fluorometer (Cytofluor, Biosearch) at an excitation wavelength of 530 nm and an emission wavelength of 590 nm (gain 30).

[3] = test system: Enterococcus faecalis (ATCC29212); assay: IC90 determination, microtitre plate assay, EFA 29212; assay type: cell-based; conditions: 90% inhibitory concentration for bacterial growth, 24 hours, 37° C., read-out: IC90 (μg/ml) EFA 29212
Method: as §1, §2, §3, §4, §5
(§7) Flat-bottom, sterile 96-well plastic microtiter plates were filled with 180 μl of sterile deionized water, supplemented with 0.25% BSA. […] At the end of incubation, one day after inoculation, the bacterial growth was quantitated fluorometrically. […] The fluorescence was read in a computer-controlled fluorometer (Cytofluor Biosearch) at an excitation wavelength of 530 nm and an emission wavelength of 590 nm. The % growth inhibition achieved by the compounds was calculated according to standard methods.

[4] = test system: Streptococcus pyogens (ATCC8668); assay: IC90 determination, microtitre plate assay, SPY 8668; assay type: cell-based; conditions: 90% inhibitory concentration for bacterial growth, 24 hours, 37° C., read-out: IC90 (μg/ml) SPY 8668
Method: as §1, §2, §3, §4, §5, §7

[5] = test system: Pseudomonas aeruginosa (ATCC27853); assay: IC90 determination, microtitre plate assay, PAE 27853; assay type: cell-based; conditions: 90% inhibitory concentration for bacterial growth, 24 hours, 37° C., read-out: IC90 (μg/ml) PAE 27853
Method: as §1, §2, §3, §4, §5, §7

[6] = test system: Escherichia coli (ATCC35218); assay: IC90 determination, microtitre plate assay, ECO 35218; assay type: cell-based; conditions: 90% inhibitory concentration for bacterial growth, 24 hours, 37° C., read-out: IC90 (μg/ml) ECO 35218
Method: as §1, §2, §3, §4, §5, §7

[7] = test system: methicilline resistant Staphylococcus aureus (MRSA) (a clinical isolate from the University of Antwerp); assay: IC90 determination, microtitre plate assay, STA RMETH; assay type: cell-based; conditions: 90% inhibitory concentration for bacterial growth, 37° C.; for IC90: Staphylococcus aureus, MRSA, 24 h, read-out: IC90 (μg/ml) STA RMETHIC
Method: as §1, §2, §3, §4, §5
as §6, with “Therefore resazurin (0.6 mg/ml) was added in a volume of 20 μl to all wells 3 hours after inoculation, and the plates were re-incubated overnight. A change in colour from blue to pink indicated the growth of bacteria.” left out

Row | SMILES | IC90 (μg/ml) STA B29213 [2] [µg/mL] | IC90 (μg/ml) MSM 607 (M. Smegmatis (ATCC607)) [µg/mL] | melting point [°C] | IC90 (μg/ml) SPN 6305 [1] [µg/mL] | IC90 [2] [µg/mL] | IC90 (M. Smegmatis (ATCC607)) [µg/mL] | further results
1 | COc1nc2ccc(Br)cc2cc1C(c1ccccc1)C(O)(CSCCN(C)C)c1ccccc1 (single isomer, unassigned) [Compound 1] | 8.74 (≈ 15.8 µM) | 6.94 (≈ 12.6 µM) | 175 | – | – | – | IC90 [1]: 4.92 µg/mL (≈ 8.92 µM); IC90 [3]: 19.6 µg/mL (≈ 35.5 µM); IC90 [4]: 49.2 µg/mL (≈ 89.1 µM); IC90 [5]: 22 µg/mL (≈ 39.8 µM); IC90 [6]: 55.2 µg/mL (≈ 100 µM)
2 | COc1nc2ccc(Br)cc2cc1C(c1ccccc1)C(O)(CSCCN(C)C)c1ccccc1 (single isomer, unassigned) [Compound 2] | 21.96 (≈ 39.8 µM) | 2.46 (≈ 4.46 µM) | – | 8.74 (≈ 15.8 µM) | – | – | –
3 | COc1nc2ccc(Br)cc2cc1C(c1ccccc1)C(O)(CSCCCN(C)C)c1ccccc1 (single isomer, unassigned) [Compound 3] | 6.35 (≈ 11.2 µM) | 1.79 (≈ 3.16 µM) | – | 2.01 (≈ 3.55 µM) | – | – | IC90 [3]: 11.3 µg/mL (≈ 19.9 µM); IC90 [4]: 7.99 µg/mL (≈ 14.1 µM); IC90 [5]: 11.3 µg/mL (≈ 19.9 µM); IC90 [7]: 11.3 µg/mL (≈ 19.9 µM); IC90 [6]: 14.2 µg/mL (≈ 25.1 µM)
4 | COc1nc2ccc(Br)cc2cc1C(c1ccccc1)C(O)(CSCCCN(C)C)c1ccccc1 (single isomer, unassigned) [Compound 4] | – | – | 136 | 10.06 (≈ 17.8 µM) | 7.99 (≈ 14.1 µM) | 2.01 (≈ 3.55 µM) | –
5 | CCN(CC)CCSCC(O)(c1ccccc1)C(c1ccccc1)c1cc2cc(Br)ccc2nc1OC (single isomer, unassigned) [Compound 5] | – | 2.06 (≈ 3.55 µM) | – | 2.31 (≈ 3.99 µM) | 58 (≈ 100 µM) | – | –
6 | CCN(CC)CCSCC(O)(c1ccccc1)C(c1ccccc1)c1cc2cc(Br)ccc2nc1OC (single isomer, unassigned) [Compound 6] | 51.66 (≈ 89.1 µM) | 10.31 (≈ 17.8 µM) | 148 | 23.07 (≈ 39.8 µM) | – | – | –
7 | CCN(CC)CCCSCC(O)(c1ccccc1)C(c1ccccc1)c1cc2cc(Br)ccc2nc1OC (single isomer, unassigned) [Compound 7] | 9.41 (≈ 15.9 µM) | 1.88 (≈ 3.17 µM) | 104 | 2.65 (≈ 4.46 µM) | – | – | –
8 | CCN(CC)CCCSCC(O)(c1ccccc1)C(c1ccccc1)c1cc2cc(Br)ccc2nc1OC (single isomer, unassigned) [Compound 8] | 1.88 (≈ 3.17 µM) | – | – | – | – | 1.88 (≈ 3.17 µM) | IC90 [1]: 2.36 µg/mL (≈ 3.98 µM)
9 | COc1nc2ccc(Br)cc2cc1C(c1ccccc1)C(O)(CSCCCN1CCCCC1)c1ccccc1 (single isomer, unassigned) [Compound 9] | 60.56 (≈ 100 µM) | 48.11 (≈ 79.4 µM) | 158 | 60.56 (≈ 100 µM) | – | – | –
10 | COc1nc2ccc(Br)cc2cc1C(c1ccccc1)C(O)(CSCCCN1CCCCC1)c1ccccc1 (single isomer, unassigned) [Compound 10] | 4.81 (≈ 7.94 µM) | 1.92 (≈ 3.17 µM) | – | 2.15 (≈ 3.55 µM) | – | – | –
11 | COc1nc2ccc(Br)cc2cc1C(c1ccccc1)C(O)(CSCCCN1CCN(C)CC1)c1ccccc1 (single isomer, unassigned) [Compound 11] | 4.93 (≈ 7.94 µM) | 1.96 (≈ 3.16 µM) | 136 | 1.96 (≈ 3.16 µM) | – | – | IC90 (μg/ml) STA RMETHIC ([7]; 24 hours): 12.38 µg/mL (≈ 19.9 µM)
12 | COc1nc2ccc(Br)cc2cc1C(c1ccccc1)C(O)(CSCCCN1CCN(C)CC1)c1ccccc1 (single isomer, unassigned) [Compound 12] | – | – | – | – | 4.39 (≈ 7.07 µM) | 2.2 (≈ 3.54 µM) | IC90 [1]: 2.2 µg/mL (≈ 3.54 µM); IC90 [7]: 13.9 µg/mL (≈ 22.4 µM)
13 | COc1nc2ccc(Br)cc2cc1C(c1ccccc1)C(O)(CN(C)CCN(C)C)c1ccccc1 (single isomer, unassigned) [Compound 13] | – | – | 128 | – | 43.6 (≈ 79.4 µM) | 8.69 (≈ 15.8 µM) | –
14 | COc1nc2ccc(Br)cc2cc1C(c1ccccc1)C(O)(CN(C)CCN(C)C)c1ccccc1 (single isomer, unassigned) [Compound 14] | 54.85 (≈ 100 µM) | 8.69 (≈ 15.8 µM) | – | – | – | – | –
15 | COc1nc2ccc(Br)cc2cc1C(c1ccccc1)C(O)(CN(CCN(C)C)Cc1ccccc1)c1ccccc1 (stereo not shown) [Compound 15] | 62.46 (≈ 100 µM) | 62.46 (≈ 100 µM) | – | 62.46 (≈ 100 µM) | – | – | –
16 | COc1nc2ccc(Br)cc2cc1C(c1ccccc1)C(O)(CN(CCN(C)C)Cc1ccccc1)c1ccccc1 (stereo not shown) [Compound 16] | – | – | – | – | 62.5 (≈ 100 µM) | 55.7 (≈ 89.1 µM) | IC90 [1]: 62.5 µg/mL (≈ 100 µM)
